Results published in patent US20150072416A1, “METABOLITE FOR IMPROVING PRODUCTION, MAINTENANCE AND PROLIFERATION OF PLURIPOTENT STEM CELLS, COMPOSITION COMPRISING THE SAME, AND METHOD OF CULTURING PLURIPOTENT STEM CELL USING THE SAME” (KOREA RESEARCH INSTITUTE OF BIOSCIENCE AND BIOTENOLOGY, priority 2012, published 2015).

How the values were obtained:
[1] = test system: human fibroblasts transfected with reprogramming factors; experiment: Reprogramming kinetics of hiPSCs (stem cell marker expression, time to colonies); assay type: cell-based
Protocol: Total RNA was isolated from produced cells using an RNeasy Mini kit (Qiagen, Valencia, Calif.) and reverse-transcribed using a SuperScript First-strand synthesis system kit (Invitrogen) according to the manufacturer's instruction. Then, semi-quantitative RT-PCR was performed using a platinum Tag SuperMix kit (Invitrogen) under the following conditions: 94° C. for 3 minutes, and then 25-30 cycles, each consisting of 94° C. for 30 sec, 60° C. for 30 sec and 72° C. for 30 sec, followed by extension at 72° C. for 10 minutes. For immunostaining, cells were seeded on Matrigel-coated 4-well Lab-Tek chamber slides (Nunc, Naperville, Ill.) and cultured for 5 days under the indicated conditions. The cells were fixed in 4% paraformaldehyde at room temperature for 15 minutes, and then washed with PBS/0.2% BSA. Next, the cells were passed through PBS/0.2% BSA/0.1% Triton X-100 for 15 minutes, and then incubated with 4% normal donkey serum (Molecular Probes, Eugene, Oreg., USA) in PBS/0.2% BSA at room temperature for 1 hour. The cells were diluted with PBS/0.2% BSA, and then reacted with primary antibody at 4° C. for 2 hours. After washing, the cells were reacted with FITC- or Alexa594-conjugated secondary antibody (Invitrogen) in PBS/0.2% BSA at room temperature for 1 hour. The cells were counter-stained with 10 μg/ml DAPI. […] From day 5 of culture (D5), the expression levels of the stem cell markers Nanog and Tra-1-60 in the cell group treated with nicotinamide increased by 3 times and 8 times, respectively, compared to those in the untreated group (FIG. 6).

p53, p21 and p16 = experiment: Expression of senescence-associated signaling factors (immunostaining, Western blot, real-time PCR); assay type: cell-based, human
Protocol: Total RNA was isolated from produced cells using an RNeasy Mini kit (Qiagen, Valencia, Calif.) and reverse-transcribed using a SuperScript First-strand synthesis system kit (Invitrogen) according to the manufacturer's instruction. Then, semi-quantitative RT-PCR was performed using a platinum Tag SuperMix kit (Invitrogen) under the following conditions: 94° C. for 3 minutes, and then 25-30 cycles, each consisting of 94° C. for 30 sec, 60° C. for 30 sec and 72° C. for 30 sec, followed by extension at 72° C. for 10 minutes.
For immunostaining, cells were seeded on Matrigel-coated 4-well Lab-Tek chamber slides (Nunc, Naperville, Ill.) and cultured for 5 days under the indicated conditions. […]
Cells were lysed with RIPA buffer (containing 50 mM Tris, pH 8.0, 150 mM NaCl, 1% NP-40, 0.1% SDS, 0.5% deoxycholic acid, 1 mM PMSF) and mixed with a protease inhibitor (Roche Applied Science, Indianapolis, Ind.) on ice for 15 minutes, followed by centrifugation at 20,000×g at 4° C. for 10 minutes. The supernatant was re-centrifuged for 10 minutes, and the protein concentration was measured using a BCA protein assay kit (Pierce, Rockford, Ill.). […] The density of the bands was analyzed using Image Gauge software (Fuji Photo Film GMBH, D) and normalized to the bands of the loading control (β-actin). […]

[2] = test system: promoter regions of Nanog and Oct4; experiment: Chromatin immunoprecipitation of histone 3 methylation at Nanog and Oct4 promoters; assay type: cell-based, human
Protocol: Formaldehyde was added to a cell culture to fix the cells, and then the chromatin was fragmented to a suitable size by sonication. The chromatin was immunoprecipitated with antibodies to lysine residues 4 and 27 of histone 3, and then the DNA was collected and amplified by real-time polymerase chain reaction using primers for the Oct4 and Nanog promoter regions.

[3] = from day 5 of culture, compared to untreated group

NC(=O)c1cccnc1 [nicotinamide]
period of time required until hiPSCs colonies ([1]; cells treated with nicotinamide, 3 weeks or more generally required): ≤ 2 weeks
increase in expression level of stem cell marker Nanog (immunostaining) [1, 3]: 3 times
increase in expression level of stem cell marker Tra-1-60 (immunostaining) [1, 3]: 8 times
mRNA expression levels of Nanog and TERT ([1]; from day 7, real-time PCR): rapidly increased
mRNA and protein expression levels of p53, p21 and p16 (p53, p21 and p16; 1 mM, reprogramming process): significantly decreased
inhibition of expression of senescence factors p53, p27, p21 and p16 (p53, p21 and p16; high concentration (20 mM)): did not appear
methylation of lysine residue 4 of histone 3 in promoter regions of Nanog and Oct4 [2]: increased
methylation of residue 27 of histone 3 in promoter regions of Nanog and Oct4 [2]: decreased
